{"source": "ChEMBL document CHEMBL3507680", "about": "“University of Dundee, Gates Library screen for HepG2 cell viability”", "data": [{"test": "Human HepG2 cell viability assay in 384 well format", "assay_type": "toxicity, cell-based", "parameters": "dose 125 nL, time 70.5 hour; concentration not given beside the values", "settings": "HepG2 cells, read-out: Inhibition", "units": {"cytotoxicity at 70.5 h": "%"}, "values": [{"smiles": "O=C(CNCCn1cccn1)NCC1(c2ccccc2)CCC1", "cytotoxicity at 70.5 h": 1.86}, {"smiles": "CC(C)(C)n1ncc2c(=O)n(CC(=O)NCc3ccccc3)cnc21", "cytotoxicity at 70.5 h": 7.32}, {"smiles": "N#Cc1cc(F)ccc1CN1CCCC1Cn1cccn1", "note": "(configuration not stated)", "cytotoxicity at 70.5 h": -5.11}, {"smiles": "CC(C(=O)NCCCn1ccnc1)n1cc(Br)cn1", "note": "(configuration not stated)", "cytotoxicity at 70.5 h": -9.82}, {"smiles": "O=C(Nc1ccc(-c2csnn2)cc1)N1CC[C@H](O)C1", "cytotoxicity at 70.5 h": -13.4}, {"smiles": "Cc1nnc(NC(=O)c2cc(S(=O)(=O)N3CCSCC3)c[nH]2)s1", "cytotoxicity at 70.5 h": -0.0324}, {"smiles": "CC1(C)CN(C(=O)c2cnc(CN3CCCC3)s2)CC[C@]1(C)O", "cytotoxicity at 70.5 h": -0.621}, {"smiles": "CCOc1ccc(N(CC(=O)c2ccccc2)C2=NCCCCC2)cc1", "cytotoxicity at 70.5 h": -9.89}, {"smiles": "Cn1c(SCC(N)=O)nnc1-c1csc2c1CCCC2", "cytotoxicity at 70.5 h": -9.11}, {"smiles": "CCOCc1nccc(-c2ccc(OCC)c(C(=O)O)c2)n1", "cytotoxicity at 70.5 h": 2.25}, {"smiles": "COc1ccccc1OC1CCN(C(=O)c2c[nH]c(=O)[nH]c2=O)CC1", "cytotoxicity at 70.5 h": -4.88}, {"smiles": "CCc1noc(CS(=O)(=O)CC=C(C)C)n1", "cytotoxicity at 70.5 h": -9.04}, {"smiles": "CCNc1ccnc(NC2CCN(CC(N)=O)CC2)n1", "cytotoxicity at 70.5 h": 14}, {"smiles": "COc1ccc(C)cc1NC(=O)Cn1nc(C)c(C#N)c1N", "cytotoxicity at 70.5 h": -5.55}, {"smiles": "CC(NC(=O)NCc1cc(Br)cs1)c1ccccn1", "note": "(configuration not stated)", "cytotoxicity at 70.5 h": -3.66}, {"smiles": "COc1ccc2c(c1)C(C(=O)NCCN1CCNC1=O)CC(=O)N2", "note": "(configuration not stated)", "cytotoxicity at 70.5 h": 16.8}, {"smiles": "CCCc1nccn1-c1cccc(CN2CCCC2)c1", "cytotoxicity at 70.5 h": -2.36}, {"smiles": "CCNC(=O)[C@@H]1C[C@@H](N)CN1Cc1ccc(-c2ccccc2C#N)o1", "cytotoxicity at 70.5 h": -6.11}, {"smiles": "COc1ccc(N2CCC(NS(=O)(=O)N(C)C(C)C)CC2)cc1", "cytotoxicity at 70.5 h": 7.03}, {"smiles": "Cc1ccc(CN(CCCN(C)C)Cc2cnc(N(C)C)nc2)o1", "cytotoxicity at 70.5 h": 6.47}, {"smiles": "CCOC(=O)N1CCN(C(=O)c2sc(-c3ccccc3F)nc2C)CC1", "cytotoxicity at 70.5 h": -11.8}, {"smiles": "O=C(Nc1ccc2c(c1)OCO2)N1CCCC1c1ccco1", "note": "(configuration not stated)", "cytotoxicity at 70.5 h": -4.29}, {"smiles": "CCc1nc(NCCCOC)c2c(n1)c(C)nn2C", "cytotoxicity at 70.5 h": -13.4}, {"smiles": "O=C(CS(=O)(=O)c1ccc(Cl)cc1)NC1CCCc2ccccc21", "note": "(configuration not stated)", "cytotoxicity at 70.5 h": 1.89}, {"smiles": "Cc1csc(C2(NC(=O)NCCN3CCOCC3)CCC2)n1", "cytotoxicity at 70.5 h": -8.41}, {"smiles": "CCCNC(=O)Nc1ccc2c(c1)N(S(=O)(=O)CC)CC2", "cytotoxicity at 70.5 h": -6.9}, {"smiles": "COCCNC(=O)NC(c1ccccc1)c1ccccc1OC", "note": "(configuration not stated)", "cytotoxicity at 70.5 h": -3.63}, {"smiles": "O=C(Nc1cccc(OCC(F)F)n1)c1ccncc1", "cytotoxicity at 70.5 h": -8.53}, {"smiles": "N#Cc1cc2c(nc1SCc1cc(O)nc(O)n1)CCCCC2", "cytotoxicity at 70.5 h": -1.03}, {"smiles": "CC(C)CNc1nccc(-c2cnc3sc(Cl)cn3c2=O)n1", "cytotoxicity at 70.5 h": -6.64}, {"smiles": "CC(C)CN1CCN(Cc2nc3c(s2)CCCC3)[C@H]2CS(=O)(=O)C[C@H]21", "cytotoxicity at 70.5 h": 10.7}, {"smiles": "CCN(CC)S(=O)(=O)N1CCCC(c2nccn2Cc2ccncc2)C1", "note": "(configuration not stated)", "cytotoxicity at 70.5 h": 8.67}, {"smiles": "CC(C)CCN1CCc2cc(C(=O)N(C)C)c(NCC3CC3)nc2CC1", "cytotoxicity at 70.5 h": 5.09}, {"smiles": "COc1ccc(CCNC(=O)CN2CCOCS2(=O)=O)cc1", "cytotoxicity at 70.5 h": -8.13}, {"smiles": "Cc1cc(N(C)C)nc(C2COCCN2Cc2cscn2)n1", "note": "(configuration not stated)", "cytotoxicity at 70.5 h": 18}, {"smiles": "Cc1cc(Br)oc1C(=O)N1CCC(N(C)C)CC1", "cytotoxicity at 70.5 h": 33.8}, {"smiles": "Cc1[nH]ncc1C(=O)N1CCCC(c2cc(C(F)(F)F)[nH]n2)C1", "note": "(configuration not stated)", "cytotoxicity at 70.5 h": 5.58}, {"smiles": "COc1ccc(C)cc1CN(CC(N)=O)C(C)C", "cytotoxicity at 70.5 h": -3.29}, {"smiles": "COCC1N(C(=O)c2ccc3c(c2)OCCCO3)[C@H]2CC[C@]1(O)CC2", "note": "(some centres not stated)", "cytotoxicity at 70.5 h": -6.94}, {"smiles": "CCN(Cc1ccoc1)C(=O)NC1CCN(CC=C(C)C)CC1", "cytotoxicity at 70.5 h": 6.72}, {"smiles": "COc1ccnc(N2CCN(CC(=O)N3CCC(C)CC3)CC2)n1", "cytotoxicity at 70.5 h": -13.2}, {"smiles": "CNC(=O)[C@@]12CCO[C@@H]1CCN(S(=O)(=O)c1cc(C)cc(C)c1)C2", "cytotoxicity at 70.5 h": -13.2}, {"smiles": "CN(C)CC(C)(C)Cn1cnc(-c2ccccc2)c1-c1ncc[nH]1", "cytotoxicity at 70.5 h": 11.7}, {"smiles": "CC1(C)CN(c2cc(C3CC3)ncn2)C[C@]1(C)O", "cytotoxicity at 70.5 h": 21.7}, {"smiles": "O=C(NCc1cc(N2CCOCC2)ncn1)c1cccc(CO)n1", "cytotoxicity at 70.5 h": 5.15}, {"smiles": "CC(C)Cc1noc(CN2CCOCC2C)n1", "note": "(configuration not stated)", "cytotoxicity at 70.5 h": -1.45}, {"smiles": "COc1ccc(CN(C)C(=O)CSc2nnc(N)s2)c(OC)c1OC", "cytotoxicity at 70.5 h": -5.3}, {"smiles": "Cc1cc2[nH]c(CN3CCOC(Cc4ccccc4)C3)cc(=O)n2n1", "note": "(configuration not stated)", "cytotoxicity at 70.5 h": 18.7}, {"smiles": "O=C1CN([C@@H]2CC[C@@H](NS(=O)(=O)c3ccc(F)cc3)[C@H]2O)CCN1", "cytotoxicity at 70.5 h": 4.31}, {"smiles": "O=C1CC2(CCN(Cc3ccccn3)C2)CN1c1cccnc1", "note": "(configuration not stated)", "cytotoxicity at 70.5 h": 1.41}, {"smiles": "Cc1ccc(CN2CCC3(CC2)COCCN3S(C)(=O)=O)o1", "cytotoxicity at 70.5 h": -4.45}, {"smiles": "CCOc1ccccc1-n1c(-c2cn(CC)nc2C)n[nH]c1=O", "cytotoxicity at 70.5 h": -4.81}, {"smiles": "CNC(=O)c1cc2c(nc1N(C)C)CCN(C)CC2", "cytotoxicity at 70.5 h": -2.14}, {"smiles": "Cc1ccc(CC(=O)N2CCC(Nc3ccc(C)nn3)CC2)cn1", "cytotoxicity at 70.5 h": -1.2}, {"smiles": "CCCc1nc(C[S+]([O-])Cc2cn3cccc(C)c3n2)no1", "note": "(configuration not stated)", "cytotoxicity at 70.5 h": -3.84}, {"smiles": "Cn1cc(N2CCC3(CCN(C(=O)[C@H]4CCCO4)C3)C2=O)cn1", "note": "(some centres not stated)", "cytotoxicity at 70.5 h": -7.22}, {"smiles": "CN(Cc1noc(C2CC2)n1)C1CCN(CCc2cccs2)C1", "note": "(configuration not stated)", "cytotoxicity at 70.5 h": -2.4}, {"smiles": "Cc1ccc(F)c(NC(=O)CCC(=O)N(C)Cc2cc(C3CC3)[nH]n2)c1", "cytotoxicity at 70.5 h": -8.19}, {"smiles": "Cc1csc(CN(C)C(=O)c2cccc(CCC(C)(C)O)c2)n1", "cytotoxicity at 70.5 h": -6.05}, {"smiles": "CCN(Cc1ccco1)C(C)c1nc(C)no1", "note": "(configuration not stated)", "cytotoxicity at 70.5 h": -2.63}, {"smiles": "CC(C)n1cnnc1C1CCCN(C(=O)COCc2ccccc2)C1", "note": "(configuration not stated)", "cytotoxicity at 70.5 h": -5.17}, {"smiles": "Cc1cc(C)c(CNC(=O)NCc2nnc3n2CCCCC3)c(=O)[nH]1", "cytotoxicity at 70.5 h": -5.09}, {"smiles": "O=C(c1cnco1)N1CCCC(Cc2cccc3ncccc23)C1", "note": "(configuration not stated)", "cytotoxicity at 70.5 h": -0.138}, {"smiles": "CC(C)SCC(=O)N1CCCn2nc(C(=O)Nc3ccccc3)cc2C1", "cytotoxicity at 70.5 h": 6.99}, {"smiles": "Cc1cccc(CO[C@@H]2CC[C@H]3[C@H]2OCCN3Cc2ccoc2)n1", "cytotoxicity at 70.5 h": -11.3}, {"smiles": "O=C(NCCc1cccs1)[C@H]1CO[C@H]2CCNC[C@H]2C1", "cytotoxicity at 70.5 h": -15}, {"smiles": "COc1cc(C)nc(N2CCN(C(=O)c3ccn(C)c(=O)c3)CC2)n1", "cytotoxicity at 70.5 h": -0.122}, {"smiles": "Cc1ccc(C(C)N(C)C(=O)c2ccc(=O)n(C)c2)s1", "note": "(configuration not stated)", "cytotoxicity at 70.5 h": -0.24}, {"smiles": "CCCc1nnc(N2CCC3(CCC(=O)N(C)C3)CC2)o1", "cytotoxicity at 70.5 h": 4.55}, {"smiles": "CCN1CCN(C(=O)C(C)n2cc(Br)cn2)CC1", "note": "(configuration not stated)", "cytotoxicity at 70.5 h": -1.55}, {"smiles": "O=C(NCCCn1nc2ccccn2c1=O)NCCC1CCC1", "cytotoxicity at 70.5 h": -3.21}, {"smiles": "Cc1ncc2c(n1)CN(Cc1cn3ccsc3n1)CC2", "cytotoxicity at 70.5 h": -0.474}, {"smiles": "Cc1cnn(CC(=O)N2CCC(Nc3ccc(C)nn3)CC2)c1", "cytotoxicity at 70.5 h": 12.8}, {"smiles": "CC1CCCN1C1CCN(C(=O)c2cccc(-c3ccoc3)c2)CC1", "note": "(configuration not stated)", "cytotoxicity at 70.5 h": 10.8}, {"smiles": "Cc1ccc2[nH]c(=O)c(CNCCCN3CCOCC3)cc2c1", "cytotoxicity at 70.5 h": -8.68}, {"smiles": "O=C(CCC1CCCO1)NCCN1CCCCC1", "note": "(configuration not stated)", "cytotoxicity at 70.5 h": -3.64}, {"smiles": "COc1cc(C(C)=O)ccc1OCC(=O)N(C)Cc1cnn(C)c1", "cytotoxicity at 70.5 h": -7.56}, {"smiles": "CC[C@@]1(O)CCN(C(=O)c2ccc(-c3ccco3)cc2)C[C@H]1O", "cytotoxicity at 70.5 h": -5.37}, {"smiles": "CN(C)c1nccnc1N1CC[C@@]2(O)CCNC[C@H]2C1", "cytotoxicity at 70.5 h": 9.65}, {"smiles": "CC(C#N)CNC(=O)Nc1ccc(Br)cc1", "note": "(configuration not stated)", "cytotoxicity at 70.5 h": 2.54}, {"smiles": "C=C(C)C(=O)N1CCC(C(=O)c2cc(C)cnc2N)CC1", "cytotoxicity at 70.5 h": 14.9}, {"smiles": "CCNc1ncc(C(=O)N2CCOC(CCCc3ccccc3)C2)cn1", "note": "(configuration not stated)", "cytotoxicity at 70.5 h": 14.5}]}]}
